CC(=O)N1CN(C(C)=O)CN(C(C)=O)C1
solubility (mole fraction)
Conditions	298 K	303 K	308 K	313 K	318 K
in acetonitrile	0.0478	0.0695	0.102	0.142	0.202
in ethyl acetate	0.0153	0.0178	0.0198	0.0236	0.0271
in methanol	0.204	0.238	0.283	0.335	0.395
in water	0.00434	0.00612	0.0085	0.0125	0.018

— BigSolDB 2.1
